Measurements reported in patent US20120064056A1, “DICHLORACETATE IN COMBINATION WITH CLINICALLY HIGH LEVELS OF CARDIOPROTECTIVE OR HEMODYNAMIC DRUGS” (THE GOVERNORS OF THE UNIVERSITY OF ALBERTA TEC Edmonton, priority 2002, published 2012).

Assays:
[1] = tested on: isolated rat hearts subjected to low flow demand ischemia; test: Isolated working rat heart, low flow demand ischemia: cardiac function and efficiency; details: for Aortic Outflow / Cardiac Output / Coronary Flow / HR × PSP / Heart Rate / Peak Systolic Pressure: DCA 2 mM, diltiazem 0.8 μM, metoprolol 1 μM
Procedure: (§1) Hearts were trimmed of excess tissue, and the pulmonary artery and the opening to the left atrium were then cannulated. After 15 min of Langendorff perfusion, hearts were switched to the working mode by clamping the aortic inflow line from the Langendorff reservoir and opening the left atrial inflow line. The perfusate was delivered from an oxygenator into the left atrium at a constant preload pressure of 11 mm Hg. […] The afterload was set at a hydrostatic pressure of 80 mm Hg. […] Palmitate was bound to the albumin as described previously ([…]., et al. J Biol. Chem. 267:3825-3831 (1992)). […] For the aerobic model hearts, all tested compounds were introduced into the heart 5 minutes into the working mode following Langendorff Perfusion. Spontaneously beating hearts were used in all perfusions. Heart rate and aortic pressure were measured with a Biopac Systems Inc. blood pressure transducer connected to the aortic outflow line. Cardiac output and aortic flow were measured with Transonic […] ultrasonic flow probes in the preload and afterload lines, respectively. Coronary flow was calculated as the difference between cardiac output and aortic flow. […] Cardiac work was calculated as the product of systolic pressure and cardiac output. Cardiac efficiency was defined as a ratio of cardiac work to MVO2. […] All tested compounds were introduced into the perfusate five minutes into initiation of aerobic perfusion.

[2] = tested on: isolated rat hearts subjected to global ischemia; test: Isolated working rat heart, global no flow ischemia and reperfusion: cardiac function and efficiency
Procedure: as §1, with “prior to reperfusion.” for “into initiation of aerobic perfusion.”

[3] = tested on: isolated rat hearts; test: Isolated working rat heart, aerobic perfusion: glycolysis and glucose oxidation; set-up: glycolytic rates (glycolysis) / glucose oxidation rates: unit not given here; details: normal hearts, aerobic, DCA 2 mM, digoxin 3 nM, diltiazem 0.8 μM, dobutamine 1 μM, metoprolol 1 μM
Method in brief: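 Hearts from male Sprague-Dawley rats perfused in working mode at 37 °C (preload 11, afterload 80 mm Hg) with Krebs-Henseleit containing 5.5 mmol/L glucose, 1.2 mmol/L palmitate and 3% BSA. Compounds added 5 min into working mode. Glycolysis (^3H2O) and glucose oxidation (^14CO2) from [5-^3H/U-^14C]glucose measured every 10 min over 60 min aerobic perfusion.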

[4] = low flow ischemia: aerobic period
[5] = low flow ischemia: ischemic period
[6] = post-ischemic reperfusion, DCA 2 mM, digoxin 3 nM, metoprolol 1 μM

COCCc1ccc(OCC(O)CNC(C)C)cc1 (stereo not shown) [Metoprolol, metoprolol]
cardiac work, in words ([1]; low flow demand ischemia, FIG. 24, FIG. 30): no significant changes
oxygen consumption, in words ([1]; low flow demand ischemia, FIG. 25, FIG. 31): no significant changes
peak systolic pressure, effect in words ([1]; low flow demand ischemia, Table 1): no significant increase
heart rate, effect in words ([1]; low flow demand ischemia, Table 1, compared to control): no significant increase
coronary flow (coronary outflow), effect in words ([1]; low flow demand ischemia, Table 2): no significant increase
Aortic Outflow [1, 4]: 25 ± 2 mL/min
Cardiac Output [1, 4]: 47 ± 2 mL/min
Coronary Flow [1, 4]: 22 ± 1 mL/min
HR × PSP [1, 4]: 30 ± 2 beats · min^−1 · mmHg · 10^−2
Heart Rate [1, 4]: 216 ± 10 beats · min^−1
Peak Systolic Pressure [1, 4]: 141 ± 7 mmHg
Aortic Outflow [1, 5]: 17 ± 3 mL/min
Cardiac Output [1, 5]: 31 ± 4 mL/min
Coronary Flow [1, 5]: 14 ± 1 mL/min
HR × PSP [1, 5]: 30 ± 2 beats · min^−1 · mmHg · 10^−2
Heart Rate [1, 5]: 216 ± 10 beats · min^−1
Peak Systolic Pressure [1, 5]: 141 ± 7 mmHg
cardiac function, in words ([1]; low-flow ischemic period, FIG. 23, FIG. 29): no significant changes
Aortic Outflow [2, 6]: 11 ± 5 mL/min
Cardiac Output [2, 6]: 24 ± 9 mL/min
Coronary Flow [2, 6]: 13 ± 4 mL/min
HR × PSP [2, 6]: 13 ± 6 beats · min^−1 · mmHg · 10^−2
Heart Rate [2, 6]: 185 ± 40 beats · min^−1
Peak Systolic Pressure [2, 6]: 73 ± 17 mmHg
functional parameters (cardiac function, cardiac efficiency) during the reperfusion period compared to control (Table 1, Table 2), in words ([2]; reperfusion period): significantly improved
recovery of cardiac function of previously ischemic hearts compared to control, in words ([2]; reperfusion period, FIG. 11, FIG. 17): does not change cardiac function
recovery of cardiac work of previously ischemic hearts compared to control, in words ([2]; reperfusion period, FIG. 12, FIG. 18): significantly improve the recovery
recovery of oxygen consumption of previously ischemic hearts, in words ([2]; reperfusion period, FIG. 13, FIG. 19): There does not appear to be significant differences
recovery of cardiac efficiency of previously ischemic hearts compared to control, in words ([2]; reperfusion period, FIG. 14, FIG. 20): does not
glucose oxidation rates ([3]; FIG. 1, 3, 5, 7, control 361±43): 651±222
glycolytic rates (glycolysis) ([3]; FIG. 2, 4, 6, 8, control 3.430±0.604): 4.530±0.876
